Experiment [1] addresses T1, human DGKα (Homo sapiens, UniProt P23743).
T1 construct: purchased Carna Biosciences'; inferred from the same paragraph's 'obtained from Carna Biosciences')
Description: DGKα Biochemical Activity Assay (ADP-Glo).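 Note: recombinant enzyme converting diacylglycerol in lipid micelles with ATP, ADP formed detected by luminescence, IC50 from a four-parameter nonlinear fit, geometric mean across experiments.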 A general note: In ADP-Glo the light output rises with the ADP produced.

For experiment [2], the system named is Jurkat NFκB-luciferase cells. Description: Jurkat NFκB-Luciferase Assay.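 Note: bioluminescence read-out normalized to DMSO basal activation and to maximum enhancement at 1 µM compound, rising signal indicating stronger T-cell activation through DGKα inhibition.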 Format: cell-based. The settings on record: Homo sapiens; Jurkat NFκB-luciferase cells activated with anti-CD3 antibody (OKT3), 2.5 hrs at 37° C., One-Glo Ex; geometric mean; read-out: DGK NFKb Luciferase EC50.

T1 sequence (P23743 whole entry): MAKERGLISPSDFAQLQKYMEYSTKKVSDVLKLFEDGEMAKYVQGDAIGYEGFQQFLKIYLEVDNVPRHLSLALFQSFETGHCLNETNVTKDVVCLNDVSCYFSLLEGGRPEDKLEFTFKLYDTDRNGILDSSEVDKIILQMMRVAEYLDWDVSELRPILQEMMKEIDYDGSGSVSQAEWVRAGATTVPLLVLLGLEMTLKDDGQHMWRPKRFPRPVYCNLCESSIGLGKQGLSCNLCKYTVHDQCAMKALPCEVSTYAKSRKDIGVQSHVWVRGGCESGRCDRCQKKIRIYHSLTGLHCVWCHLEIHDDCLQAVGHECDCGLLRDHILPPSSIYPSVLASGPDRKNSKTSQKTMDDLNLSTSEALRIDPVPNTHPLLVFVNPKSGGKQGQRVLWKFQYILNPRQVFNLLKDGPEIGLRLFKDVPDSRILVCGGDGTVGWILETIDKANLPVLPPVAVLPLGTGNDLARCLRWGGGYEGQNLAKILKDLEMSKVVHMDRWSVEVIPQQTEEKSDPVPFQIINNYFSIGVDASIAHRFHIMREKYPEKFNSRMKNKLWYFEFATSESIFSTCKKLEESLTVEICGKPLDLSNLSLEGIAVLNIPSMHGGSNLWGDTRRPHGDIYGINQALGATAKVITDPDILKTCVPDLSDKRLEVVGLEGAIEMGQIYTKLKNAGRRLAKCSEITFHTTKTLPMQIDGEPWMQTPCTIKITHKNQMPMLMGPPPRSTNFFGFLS

For the compound `[2H]C([2H])([2H])n1c(=O)nc(N2CCCc3c(C#CC4(C(F)(F)F)CC4)cccc32)c2c(F)c(F)ccc21` [Example 42, 5,6-difluoro-1-(trideuteriomethyl)-4-[5-[2-[1-(trifluoromethyl)cyclopropyl]ethynyl]-3,4-dihydro-2H-quinolin-1-yl]quinazolin-2-one], the IC50 (as a rule, the midpoint of a concentration-inhibition curve) in experiment [1] was found to be 9.48 nM. For the same compound, in experiment [2], the EC50 (commonly the concentration at which the effect is half-maximal) came to 0.311 nM.
The corresponding values for `CC(C)(O)C#Cc1cccc2c1CCCN2c1nc(=O)[nH]c2cccc(F)c12` [Example 43, 5-fluoro-4-[5-(3-hydroxy-3-methyl-but-1-ynyl)-3,4-dihydro-2H-quinolin-1-yl]-1H-quinazolin-2-one] are 1.84 nM and 2.53 nM.
The corresponding values for `[2H]C([2H])([2H])n1c(=O)nc(N(CC(F)F)c2cc(F)cc(-c3cnc(C4CC4)cn3)c2)c2c(F)cccc21` [Example 44, 4-[3-(5-cyclopropylpyrazin-2-yl)-N-(2,2-difluoroethyl)-5-fluoro-anilino]-5-fluoro-1-(trideuteriomethyl)quinazolin-2-one] are 11.2 nM and 1.43 nM.
For `O=c1nc(N(CC(F)F)c2cncc(C#CC3(C(F)(F)F)CC3)c2)c2cc(F)ccc2[nH]1` [Example 45, 4-((2,2-difluoroethyl)(5-((1-(trifluoromethyl)cyclopropyl)ethynyl)pyridin-3-yl)amino)-6-fluoroquinazolin-2(1H)-one] the same measures were 67.4 nM and 6.18 nM.
As to `O=c1nc(N(CC(F)F)c2cccc(C#CC3(C(F)(F)F)CC3)n2)c2cc(F)ccc2[nH]1` [Example 46, 4-((2,2-difluoroethyl)(6-((1-(trifluoromethyl)cyclopropyl)ethynyl)pyridin-2-yl)amino)-6-fluoroquinazolin-2(1H)-one], half-maximal inhibition in experiment [1] (IC50) was put at 86.9 nM. Besides, the EC50 in experiment [2] was determined as 15.3 nM.
In the case of `Cn1c(=O)nc(N(CC(F)F)c2cccc(C#CC3(C(F)(F)F)CC3)n2)c2cc(F)ccc21` [Example 47, 4-((2,2-difluoroethyl)(6-((1-(trifluoromethyl)cyclopropyl)ethynyl)pyridin-2-yl)amino)-6-fluoro-1-methylquinazolin-2(1H)-one], the IC50 in experiment [1] turned out to be 15 nM. Further, in experiment [2], the EC50 was determined as 1.37 nM.
For `O=c1nc(N(CC(F)F)c2cccc(C#CC3(C(F)(F)F)CC3)c2F)c2cc(F)ccc2[nH]1` [Example 48, 4-[N-(2,2-difluoroethyl)-2-fluoro-3-[2-[1-(trifluoromethyl)cyclopropyl]ethynyl]anilino]-6-fluoro-1H-quinazolin-2-one], in experiment [1], the IC50 stood at 62.8 nM. Also, in experiment [2], the EC50 was determined as 5.29 nM.
In turn, `CC(C)(C#Cc1cccc(N(CC(F)F)c2nc(=O)[nH]c3ccc(F)cc23)c1F)C(F)(F)F` [Example 49, 4-[N-(2,2-difluoroethyl)-2-fluoro-3-(4,4,4-trifluoro-3,3-dimethyl-but-1-ynyl)anilino]-6-fluoro-1H-quinazolin-2-one] displayed an IC50 in experiment [1] of 296 nM. Besides, the EC50 in experiment [2] was 5.3 nM.
The corresponding values for `O=c1nc(N(CC(F)F)c2cc(F)cc(C#CC3(C(F)(F)F)CC3)c2)c2cc(F)ccc2[nH]1` [Example 50, 4-[N-(2,2-difluoroethyl)-3-fluoro-5-[2-[1-(trifluoromethyl)cyclopropyl]ethynyl]anilino]-6-fluoro-1H-quinazolin-2-one] are 213 nM and 1.81 nM.
Turning to `[2H]C([2H])([2H])n1c(=O)nc(N(CC(F)F)c2cc(F)cc(C#CC3(C(F)(F)F)CC3)c2)c2cc(F)ccc21` [Example 51, 4-[N-(2,2-difluoroethyl)-3-fluoro-5-[2-[1-(trifluoromethyl)cyclopropyl]ethynyl]anilino]-6-fluoro-1-(trideuteriomethyl)quinazolin-2-one], in experiment [1], the IC50 stood at 35.3 nM. For the same compound, the EC50 in experiment [2] stood at 0.75 nM.
In experiment [1], `COC(C)(C)C#Cc1cccc2c1CCCN2c1nc(=O)[nH]c2cccc(F)c12` [Example 52, 5-fluoro-4-[5-(3-methoxy-3-methyl-but-1-ynyl)-3,4-dihydro-2H-quinolin-1-yl]-1H-quinazolin-2-one] displayed an IC50 of 12.9 nM. The EC50 in experiment [2] stood at 0.197 nM.
For `CC(C)(C)C(O)C#Cc1cccc2c1CCCN2c1nc(=O)[nH]c2cccc(F)c12` (stereo not drawn) [Example 53, 5-fluoro-4-[5-(3-hydroxy-4,4-dimethyl-pent-1-ynyl)-3,4-dihydro-2H-quinolin-1-yl]-1H-quinazolin-2-one] the same measures were 47.8 nM and 2.74 nM.
For `CC(C)(O)CC#Cc1cccc2c1CCCN2c1nc(=O)[nH]c2cccc(F)c12` [Example 54, 5-fluoro-4-[5-(4-hydroxy-4-methyl-pent-1-ynyl)-3,4-dihydro-2H-quinolin-1-yl]-M-quinazolin-2-one] the same measures were 23.6 nM and 8.22 nM.
As to `[2H]C([2H])([2H])n1c(=O)nc(N2CCCc3c(C#CC(C)(C)O)cccc32)c2c(F)cccc21` [Example 55, 5-fluoro-4-[5-(3-hydroxy-3-methyl-but-1-ynyl)-3,4-dihydro-2H-quinolin-1-yl]-1-(trideuteriomethyl)quinazolin-2-one], it took 5.82 nM to reach half-maximal inhibition in experiment [1] (IC50). The EC50 in experiment [2] amounted to 4.68 nM.
The corresponding values for `CCC(C)(O)C#Cc1cccc2c1CCCN2c1nc(=O)[nH]c2cccc(F)c12` (stereo not drawn) [Example 56, 5-fluoro-4-[5-(3-hydroxy-3-methyl-pent-1-ynyl)-3,4-dihydro-2H-quinolin-1-yl]-1H-quinazolin-2-one] are 31.9 nM and 5.16 nM.
The corresponding values for `CCC(O)(C#Cc1cccc2c1CCCN2c1nc(=O)[nH]c2cccc(F)c12)CC` [Example 57, 4-[5-(3-ethyl-3-hydroxy-pent-1-ynyl)-3,4-dihydro-2H-quinolin-1-yl]-5-fluoro-1H-quinazolin-2-one] are 150 nM and 9.99 nM.
The corresponding values for `O=c1nc(N(CC(F)F)c2cccc(C#CC3(C(F)(F)F)CC3)c2F)c2c(F)cccc2[nH]1` [Example 58, 4-[N-(2,2-difluoroethyl)-2-fluoro-3-[2-[1-(trifluoromethyl)cyclopropyl]ethynyl]anilino]-5-fluoro-1H-quinazolin-2-one] are 72.2 nM and 0.285 nM.
Take `CC(C)(O)C#Cc1cccc(N(CC(F)F)c2nc(=O)[nH]c3cccc(F)c23)c1F` [Example 59, 4-[N-(2,2-difluoroethyl)-2-fluoro-3-(3-hydroxy-3-methyl-but-1-ynyl)anilino]-5-fluoro-M-quinazolin-2-one]: half-maximal inhibition in experiment [1] (IC50) was put at 7.63 nM. The EC50 in experiment [2] came to 14.5 nM.
In experiment [1], `CC(C)(C#Cc1cccc(N(CC(F)F)c2nc(=O)[nH]c3cccc(F)c23)c1F)C(F)(F)F` [Example 60, 4-[N-(2,2-difluoroethyl)-2-fluoro-3-(4,4,4-trifluoro-3,3-dimethyl-but-1-ynyl)anilino]-5-fluoro-1H-quinazolin-2-one] yielded an IC50 of 122 nM. Besides, the EC50 in experiment [2] was 2.53 nM.
In experiment [1], `CC1(C#Cc2cccc(N(CC(F)F)c3nc(=O)[nH]c4cccc(F)c34)c2F)CC1` [Example 61, 4-[N-(2,2-difluoroethyl)-2-fluoro-3-[2-(1-methylcyclopropyl)ethynyl]anilino]-5-fluoro-1H-quinazolin-2-one] came in with a half-maximal inhibitory concentration (IC50) of 48.2 nM. Besides, the EC50 in experiment [2] was determined as 1.7 nM.
In experiment [1], `O=c1nc(N(CC(F)F)c2cccc(C#CC3(C(F)F)CC3)c2F)c2c(F)cccc2[nH]1` [Example 62, 4-[N-(2,2-difluoroethyl)-3-[2-[1-(difluoromethyl)cyclopropyl]ethynyl]-2-fluoro-anilino]-5-fluoro-1H-quinazolin-2-one] gave an IC50 of 28.2 nM. Moreover, the 50% effective concentration (EC50) in experiment [2] was found to be 1.13 nM.
With `CC(C)(C#Cc1cccc(N(CC(F)F)c2nc(=O)[nH]c3cccc(F)c23)c1F)C(F)F` [Example 63, 4-[3-(4,4-difluoro-3,3-dimethyl-but-1-ynyl)-N-(2,2-difluoroethyl)-2-fluoro-anilino]-5-fluoro-1H-quinazolin-2-one], it took 282 nM to reach half-maximal inhibition in experiment [1] (IC50). Besides, the EC50 in experiment [2] was 1.51 nM.
The corresponding values for `[2H]C([2H])([2H])n1c(=O)nc(N(CC(F)F)c2cc(F)cc(C#CC(C)(C)O)c2)c2c(F)c(F)ccc21` [Example 64, 4-[N-(2,2-difluoroethyl)-3-fluoro-5-(3-hydroxy-3-methyl-but-1-ynyl)anilino]-5,6-difluoro-1-(trideuteriomethyl)quinazolin-2-one] are 10.7 nM and 8.99 nM.
The corresponding values for `CC(C)(O)C#Cc1cc(F)cc(N(CC(F)F)c2nc(=O)[nH]c3ccc(F)c(F)c23)c1` [Example 65, 4-[N-(2,2-difluoroethyl)-3-fluoro-5-(3-hydroxy-3-methyl-but-1-ynyl)anilino]-5,6-difluoro-1H-quinazolin-2-one] are 13.4 nM and 9.92 nM.
The corresponding values for `[2H]C([2H])([2H])n1c(=O)nc(N(CC(F)F)c2cc(F)cc(C#CC3(C)CCCO3)c2)c2c(F)c(F)ccc21` (stereo not drawn) [Example 66, 4-[N-(2,2-difluoroethyl)-3-fluoro-5-[2-(2-methyltetrahydrofuran-2-yl)ethynyl]anilino]-5,6-difluoro-1-(trideuteriomethyl)quinazolin-2-one] are 3.27 nM and 2.85 nM.
As for `[2H]C([2H])([2H])n1c(=O)nc(N(CC(F)F)c2cc(F)cc(-c3cnc(C4CC4)cn3)c2)c2c(F)c(F)ccc21` [Example 67, 4-[3-(5-cyclopropylpyrazin-2-yl)-N-(2,2-difluoroethyl)-5-fluoro-anilino]-5,6-difluoro-1-(trideuteriomethyl)quinazolin-2-one], the IC50 in experiment [1] turned out to be 7.57 nM. Also, the EC50 in experiment [2] stood at 0.527 nM.
For `[2H]C([2H])([2H])n1c(=O)nc(N(CC(F)F)c2cc(F)cc(C#CC(C)(C)C#N)c2)c2c(F)c(F)ccc21` [Example 68, 4-[3-[2,2-difluoroethyl-[5,6-difluoro-2-oxo-1-(trideuteriomethyl)quinazolin-4-yl]amino]-5-fluoro-phenyl]-2,2-dimethyl-but-3-ynenitrile] the same measures were 3.29 nM and 2.53 nM.

Source of the values: patent US11932634B2 (Gilead Sciences, Inc., priority 2021, dated 2024).
